The results in this text go back to patent US8178506B2, “Oligomeric compounds and compositions for use in modulation of small non-coding RNAs” (Regulus Therapeutics Inc., priority 2003, dated 2012).

In the oligonucleotide strings, read from the 5' end, every base follows the letter of its sugar. An asterisk marks phosphorothioate; unmarked linkages are phosphodiester. Other units and linkages are bracketed, terminal groups are in braces. A string of capitals states the bases alone. e = 2'-O-(2-methoxyethyl) (MOE); [5mC] = 5-methylcytosine; d = 2'-deoxy (DNA)

Common to all, as to assay type: cell-based, human
In one data set the test system is mir-143 binding sites. Description: pGL3-mir-143 sensor luciferase assay in HeLa cells. Conditions: Table 41, pGL3-mir-143 sensor, 24 hours.
The subject of a further data set is BJ cells. Description: Cell cycle assay in BJ cells. Conditions: 200 nM, 48 hours, relative to untreated control. The protocol:
BJ cells were routinely cultured in MEM high glucose with 2 mM L-glutamine and Earle's BSS adjusted to contain 1.5 g/L sodium bicarbonate and supplemented with 10% fetal bovine serum, 0.1 mM non-essential amino acids and 1.0 mM sodium pyruvate (all media and supplements from Invitrogen Life Technologies, Carlsbad, Calif.). B16-F10 cells were routinely cultured in DMEM high glucose (Invitrogen Life Technologies, Carlsbad, Calif.) supplemented with 10% fetal bovine serum (Invitrogen Life Technologies, Carlsbad, Calif.). T47D cells were cultured in DMEM High glucose media (Invitrogen Life Technologies, Carlsbad, Calif.) supplemented with 10% fetal bovine serum. […] Cells were plated on collagen-coated 24-well plates (Falcon-Primaria #3047, BD Biosciences, Bedford, Mass.) at approximately 50,000 cells per well and allowed to attach to wells overnight.
In further studies, additional cell lines were treated with oligomeric compounds targeted against miRNAs to assess the effects of each oligomeric compound on cell cycling. BJ, B16, T47D, and HeLa cells were cultured and transfected as described above. […] T47Dp53 cells are T47D cells that have been transfected with and selected for maintenance of a plasmid that expresses a wildtype copy of the p53 gene (for example, pCMV-p53; Clontech, Palo Alto, Calif.), using standard laboratory procedures. BJ cells were treated with 200 nM of each oligomeric compound, and T47D, T47Dp53, HeLa, and B16 cells were treated with 150 nM of each oligomeric compound. The human foreskin fibroblast BJ cell line represents a non-cancer cell line, while HeLa, T47D, T47Dp53 cells and the mouse melanoma cell line B16-F10 represent cancerous cell lines. For comparison, oligomeric compounds ISIS 183891 (SEQ ID NO: 847) and ISIS 285717 ([…]; herein incorporated as SEQ ID NO: 857), both targeting the kinesin-like 1/Eg5 mRNA, involved in cell cycling, were used as positive controls. The random-mer ISIS 29848 was used as a negative control. Additionally, the oligomeric compounds ISIS Number 25690 ([…]; herein incorporated as SEQ ID NO: 858) and ISIS Number 25691 ([…]; herein incorporated as SEQ ID NO: 859), targeted to nucleotides 3051-3070 and 3085-3104, respectively, of the mRNA encoding the Drosha RNase III (GenBank Accession NM_013235.2, incorporated herein as SEQ ID NO: 860) were also tested. ISIS Number 25690 and ISIS Number 25691 are 5-10-52′-MOE gapmer compounds, 20 nucleotides in length, with phosphorothioate internucleoside linkages throughout the oligomeric compound. All cytidine residues are 5-methylcytidines. Transfections were performed using the methods described herein. Cells were prepared for flow cytometry 48-hours after oligonucleotide treatment. Results of these studies are shown in Table 35, where data are expressed as percentage of cells in each phase relative to the untreated control cells in that phase.

Another data set deals with T47D cells. Description: Cell cycle assay in T47D cells. Particulars: 150 nM, 48 hours, relative to untreated control.
The next data set concerns T47Dp53 cells. The experiment in a line: Cell cycle assay in T47Dp53 cells. Conditions: 150 nM, 48 hours, relative to untreated control.

Turning to “ds-mir-143: double-stranded RNA of ISIS 342199 hybridized to its perfect complement ISIS 342200 (sense UGAGAUGAAGCACUGUAGCUCA; antisense UGAGCUACAGUGCUUCAUCUCA; RNA, backbone not given here)”, the luciferase expression is listed as 15.0 percent untreated control with mir-143 binding sites (11 nM), 15.0 percent untreated control in the data set on mir-143 binding sites (33 nM) and 11.1 percent untreated control in the data set on mir-143 binding sites (100 nM).
For the substance “328403 (antisense eA*eG*eG*e[5mC]*e[5mC]*dT*dA*dT*dT*d[5mC]*d[5mC]*dT*dG*dT*dA*eG*e[5mC]*eA*eA*eA) [compound 328403]”, in the data set on BJ cells, the “% cells in cell cycle phase G1” value is on record as 102%, the “% cells in cell cycle phase G2/M” value stood at 92%, the “% cells in cell cycle phase S” value is given as 95% and the “% cells in cell cycle phase aneuploid” value was found to be 114%. For the same substance, the “% cells in cell cycle phase subG1” value in the data set with BJ cells is given as 81%. Also, in the data set on T47D cells, the “% cells in cell cycle phase G1” value was found to be 104%, the “% cells in cell cycle phase G2/M” value is given as 89%, the “% cells in cell cycle phase S” value is given as 112% and the “% cells in cell cycle phase aneuploid” value worked out at 175%. In addition, the “% cells in cell cycle phase subG1” value in the data set with T47D cells is given as 49%. For the same substance, in the data set with T47Dp53 cells, the “% cells in cell cycle phase G1” value came out at 114%, the “% cells in cell cycle phase G2/M” value was found to be 94%, the “% cells in cell cycle phase S” value is listed as 87% and the “% cells in cell cycle phase aneuploid” value is 89%. Further, the “% cells in cell cycle phase subG1” value in the data set with T47Dp53 cells turned out to be 140%.
